Reference: ChEMBL document CHEMBL1125956, “A new potent inhibitor for angiotensin converting enzyme: (R,S)-captopril-F3” (Bioorg Med Chem Lett, 1991)

Target: T1, Angiotensin-converting enzyme (Oryctolagus cuniculus, UniProt P12822)
T1 sequence (P12822 whole entry): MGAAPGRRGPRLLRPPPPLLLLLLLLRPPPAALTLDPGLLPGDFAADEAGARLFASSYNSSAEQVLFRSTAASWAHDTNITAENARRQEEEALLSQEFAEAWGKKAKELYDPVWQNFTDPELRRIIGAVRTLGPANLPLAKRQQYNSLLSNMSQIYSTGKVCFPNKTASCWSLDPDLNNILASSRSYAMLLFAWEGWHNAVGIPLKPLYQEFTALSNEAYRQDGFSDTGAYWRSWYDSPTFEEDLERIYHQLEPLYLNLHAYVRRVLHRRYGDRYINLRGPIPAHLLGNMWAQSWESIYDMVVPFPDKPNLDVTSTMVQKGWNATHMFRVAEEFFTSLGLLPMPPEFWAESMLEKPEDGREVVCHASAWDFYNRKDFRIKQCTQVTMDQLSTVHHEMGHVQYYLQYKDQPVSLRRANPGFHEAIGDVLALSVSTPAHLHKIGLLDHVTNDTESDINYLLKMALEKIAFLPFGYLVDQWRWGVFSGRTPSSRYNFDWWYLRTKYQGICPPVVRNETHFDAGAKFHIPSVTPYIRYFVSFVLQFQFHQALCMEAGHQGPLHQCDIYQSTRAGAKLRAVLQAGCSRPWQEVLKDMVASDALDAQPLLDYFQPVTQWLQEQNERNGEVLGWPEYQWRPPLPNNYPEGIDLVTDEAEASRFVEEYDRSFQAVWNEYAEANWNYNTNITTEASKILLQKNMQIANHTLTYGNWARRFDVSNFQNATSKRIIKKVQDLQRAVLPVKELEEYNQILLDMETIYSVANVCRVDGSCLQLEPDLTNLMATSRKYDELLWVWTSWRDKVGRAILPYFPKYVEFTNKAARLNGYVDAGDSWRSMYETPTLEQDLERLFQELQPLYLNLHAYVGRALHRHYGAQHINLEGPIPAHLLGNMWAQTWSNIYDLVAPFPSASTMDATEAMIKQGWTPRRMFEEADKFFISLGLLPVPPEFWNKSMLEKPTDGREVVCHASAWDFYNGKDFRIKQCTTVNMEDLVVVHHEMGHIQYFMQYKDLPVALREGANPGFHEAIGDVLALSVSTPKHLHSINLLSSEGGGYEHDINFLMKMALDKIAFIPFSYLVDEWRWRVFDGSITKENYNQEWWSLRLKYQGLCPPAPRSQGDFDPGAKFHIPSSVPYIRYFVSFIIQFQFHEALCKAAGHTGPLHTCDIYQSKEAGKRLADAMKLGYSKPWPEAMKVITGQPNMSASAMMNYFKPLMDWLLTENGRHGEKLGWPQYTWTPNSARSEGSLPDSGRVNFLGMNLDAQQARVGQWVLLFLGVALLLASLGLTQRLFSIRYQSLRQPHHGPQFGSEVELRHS
Assay: In vitro inhibitory activity was evaluated against angiotensin converting enzyme from rabbit in bovine buffered base

| IC50 [nM] | Structure (SMILES) |
| --- | --- |
| 0.29 | O=C(O)[C@@H]1CCCN1C(=O)[C@@H](CS)C(F)(F)F |
| 480 | O=C(O)[C@@H]1CCCN1C(=O)[C@H](CS)C(F)(F)F |
